According to patent US12060347B2 (BRISTOL-MYERS SQUIBB COMPANY, priority 2016, dated 2024):

target: T1, human PAR4 (Homo sapiens, UniProt Q96RI0); test: PAR4 FLIPR assay: antagonism of agonist-peptide-induced calcium mobilization in PAR4-expressing HEK293 cells; assay type: cell-based; details: H-Ala-Phe(4-F)-[…]NH2-induced intracellular calcium mobilization, 11-point curves
T1 construct: expressed in transfected cells; host or cells: HEK293 PAR4 Clone 1.2A (BMS Arctic ID 383940)
T1 sequence (Q96RI0 18-385): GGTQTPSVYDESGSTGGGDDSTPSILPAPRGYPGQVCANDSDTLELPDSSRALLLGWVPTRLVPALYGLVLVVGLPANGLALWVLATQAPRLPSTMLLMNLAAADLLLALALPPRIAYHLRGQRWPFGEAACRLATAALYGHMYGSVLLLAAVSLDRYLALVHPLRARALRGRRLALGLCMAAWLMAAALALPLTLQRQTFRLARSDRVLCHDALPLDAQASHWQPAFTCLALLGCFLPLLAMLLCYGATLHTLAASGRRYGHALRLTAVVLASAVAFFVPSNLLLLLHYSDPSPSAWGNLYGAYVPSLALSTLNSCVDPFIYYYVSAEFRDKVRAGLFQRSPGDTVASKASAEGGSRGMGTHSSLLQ

| SMILES | IC50 |
| --- | --- |
| COCc1cnc2c(-c3nc4c(C(O)c5ccccc5)cc(OC)cc4s3)cc(C)cc2n1 (single isomer, unassigned) [Example 163, (6-methoxy-2-(2-(methoxymethyl)-7-methylquinoxalin-5-yl)benzo[d]thiazol-4-yl)(phenyl)methanol] | 0.5 nM |
| COc1cnc2c(-c3nc4c(Cl)c(F)c(OC)cc4s3)cc(CO)c(F)c2n1 [Example 224, (8-(4-chloro-5-fluoro-6-methoxybenzo[d]thiazol-2-yl)-5-fluoro-3-methoxyquinoxalin-6-yl)methanol] | 15 nM |
| COc1cnc2c(-c3nc4cc(F)c(O[C@@H](C)[C@@H](C)OC(=O)Nc5ccnc(OCCC(C)(C)O)c5)nc4s3)cc(C)cc2n1 [Example 727, (2R,3S)-3-((6-fluoro-2-(2-methoxy-7-methylquinoxalin-5-yl)thiazolo[5,4-b]pyridin-5-yl)oxy)butan-2-yl (2-(3-hydroxy-3-methylbutoxy)pyridin-4-yl)carbamate] | 1.7 nM |
| COc1cnc2c(-c3nc4cc(F)c(O[C@@H](C)[C@@H](C)OC(=O)Nc5cnc(C)nc5)nc4s3)cc(Cl)cc2c1 [Example 769, (2R,3S)-3-((2-(6-chloro-3-methoxyquinolin-8-yl)-6-fluorothiazolo[5,4-b]pyridin-5-yl)oxy)butan-2-yl (2-methylpyrimidin-5-yl)carbamate] | 3.2 nM |
| COCc1cnc2c(-c3nc4c(s3)C(O)C(C)(C)CC4)cc(C)cc2n1 (stereo not drawn) [Example 145, 2-(2-(methoxymethyl)-7-methylquinoxalin-5-yl)-6,6-dimethyl-4,5,6,7-tetrahydrobenzo[d] thiazol-7-ol] | 4.5 nM |
| COc1cnc2c(-c3nc4c(Cl)c(F)c(OC[C@@H](C)OC(=O)Nc5cccnc5C)cc4s3)cc(C)cc2n1 [Example 590, (R)-1-((4-chloro-5-fluoro-2-(2-methoxy-7-methylquinoxalin-5-yl)benzo[d]thiazol-6-yl)oxy)propan-2-yl (2-methylpyridin-3-yl)carbamate] | 25 nM |
| COc1cnc2c(-c3nc4cc(F)c(OC)nc4s3)cc(C)cc2n1 [Example 182, 6-fluoro-5-methoxy-2-(2-methoxy-7-methylquinoxalin-5-yl)thiazolo[5,4-b]pyridine] | 22 nM |
| COc1cnc2c(-c3nc4c(Cl)c(F)c(OCCNC(=O)Nc5cccnc5)cc4s3)cc(C)cc2n1 [Example 519, 1-(2-((4-chloro-5-fluoro-2-(2-methoxy-7-methylquinoxalin-5-yl)benzo[d]thiazol-6-yl)oxy)ethyl)-3-(pyridin-3-yl)urea] | 16 nM |
| COc1cnc2c(-c3nc4cc(F)c(O[C@@H](C)[C@@H](C)OC(=O)Nc5ccc(OCCO)nc5)cc4s3)cc(C)cc2n1 [Example 571, (2R,3S)-3-((5-fluoro-2-(2-methoxy-7-methylquinoxalin-5-yl)benzo[d]thiazol-6-yl)oxy)butan-2-yl (6-(2-hydroxyethoxy)pyridin-3-yl)carbamate] | 1 nM |
| COc1cnc2c(-c3nc4cc(F)c(OC[C@@H](C)OC(=O)Nc5cnc(O[C@H](C)CO)nc5)cc4s3)cc(C)cc2n1 [Example 553, (R)-1-((5-fluoro-2-(2-methoxy-7-methylquinoxalin-5-yl)benzo[d]thiazol-6-yl)oxy)propan-2-yl (2-(((R)-1-hydroxypropan-2-yl)oxy)pyrimidin-5-yl)carbamate] | 1.2 nM |
| COCc1cnc2c(-c3nc4c(Cl)c(F)c(O)cc4s3)cc(C)cc2n1 [Example 291, 4-chloro-5-fluoro-2-(2-(methoxymethyl)-7-methylquinoxalin-5-yl) benzo[d]thiazol-6-ol] | 11 nM |
| Cc1cc(-c2cc3ccccc3o2)c2ncc(OC(F)F)nc2c1 [Example 1, 5-(benzofuran-2-yl)-2-(difluoromethoxy)-7-methylquinoxaline] | 29 nM |
| COCc1cnc2c(-c3nc4ccc(F)cc4s3)cc(C)cc2n1 [Example 272, 6-fluoro-2-(2-(methoxymethyl)-7-methylquinoxalin-5-yl)benzo[d]thiazole] | 3.2 nM |
| COc1cnc2c(-c3nc4cc(F)c(OC[C@@H](C)OC(=O)Nc5ccc(CC(C)(C)O)nc5)cc4s3)cc(C)cc2n1 [Example 557, (R)-1-((5-fluoro-2-(2-methoxy-7-methylquinoxalin-5-yl)benzo[d]thiazol-6-yl)oxy)propan-2-yl (6-(2-hydroxy-2-methylpropyl)pyridin-3-yl)carbamate] | 0.7 nM |
| COCc1cnc2c(-c3nc4cc(CO)c(OC)cc4s3)cc(C)cc2n1 [Example 312, (6-methoxy-2-(2-(methoxymethyl)-7-methylquinoxalin-5-yl)benzo[d]thiazol-5-yl) methanol] | 6.7 nM |
| COc1cnc2c(-c3nc4c(Cl)c(F)c(OC[C@@H](C)OC(=O)Nc5ccc(CCO)nc5)cc4s3)cc(C)cc2n1 [Example 542, (R)-1-((4-chloro-5-fluoro-2-(2-methoxy-7-methylquinoxalin-5-yl)benzo[d]thiazol-6-yl)oxy)propan-2-yl (6-(2-hydroxyethyl)pyridin-3-yl)carbamate] | 1.6 nM |
| COc1cnc2c(-c3nc4c(Cl)c(F)c(OCCOC(=O)NCc5cn(C)cn5)cc4s3)cc(C)cc2n1 [Example 397, 2-((4-chloro-5-fluoro-2-(2-methoxy-7-methylquinoxalin-5-yl)benzo[d]thiazol-6-yl)oxy)ethyl ((1-methyl-1H-imidazol-4-yl)methyl)carbamate] | 210 nM |

Now from value to molecule:

| IC50 | SMILES |
| --- | --- |
| 13 nM | COc1cnc2c(-c3nc4c(Cl)c(F)c(OCCOC(=O)NCc5ccncc5)cc4s3)cc(C)cc2n1 [Example 369, 2-((4-chloro-5-fluoro-2-(2-methoxy-7-methylquinoxalin-5-yl)benzo[d]thiazol-6-yl)oxy)ethyl (pyridin-4-ylmethyl)carbamate] |
| 9 nM | COCc1cnc2c(-c3nc4cc(F)c(OC)cc4s3)cc(C)cc2n1 [Example 277, 5-fluoro-6-methoxy-2-(2-(methoxymethyl)-7-methylquinoxalin-5-yl)benzo[d]thiazole] |
| 0.3 nM | COCc1cnc2c(-c3nc4c(s3)CCCC4)cc(C)cc2n1 [Example 144, 2-(2-(methoxymethyl)-7-methylquinoxalin-5-yl)-4,5,6,7-tetrahydrobenzo[d]thiazole] |
| 870 nM | Cc1cc(-c2nc3cc(F)c(O[C@@H](C)[C@@H](C)OC(=O)Nc4cnc(C)nc4)cc3s2)c2ncc(C(=O)N(C)C)nc2c1 [Example 615, (2R,3S)-3-((2-(2-(dimethylcarbamoyl)-7-methylquinoxalin-5-yl)-5-fluorobenzo[d]thiazol-6-yl)oxy)butan-2-yl (2-methylpyrimidin-5-yl)carbamate] |
| 4.4 nM | COc1cnc2c(-c3nc4cc(F)c(O[C@@H](C)[C@@H](C)OC(=O)Nc5ccc(CO)nc5)cc4s3)cc(C)cc2n1 [Example 499, (2R,3S)-3-((5-fluoro-2-(2-methoxy-7-methylquinoxalin-5-yl)benzo[d]thiazol-6-yl)oxy)butan-2-yl (6-(hydroxymethyl)pyridin-3-yl)carbamate] |
| 1.5 nM | COc1cnc2c(-c3nc4cc(F)c(O[C@@H](C)[C@@H](C)OC(=O)Nc5cnc(C)nc5)cc4s3)cc(Cl)cc2n1 [Example 824, (2R,3S)-3-((2-(7-chloro-2-methoxyquinoxalin-5-yl)-5-fluorobenzo[d]thiazol-6-yl)oxy)butan-2-yl (2-methylpyrimidin-5-yl)carbamate] |
| 4.6 nM | COc1cnc2c(-c3nc4c(Cl)c(F)c(OCCOC(=O)NCc5ccccn5)cc4s3)cc(C)cc2n1 [Example 396, 2-((4-chloro-5-fluoro-2-(2-methoxy-7-methylquinoxalin-5-yl)benzo[d]thiazol-6-yl)oxy)ethyl (pyridin-2-ylmethyl)carbamate] |
| 0.9 nM | COc1cnc2c(-c3nc4cc(F)c(O[C@@H](C)[C@@H](C)OC(=O)Nc5ccnc(C(=O)NCCC(C)(C)O)c5)cc4s3)cc(C)cc2n1 [Example 459, (2R,3S)-3-((5-fluoro-2-(2-methoxy-7-methylquinoxalin-5-yl)benzo[d]thiazol-6-yl)oxy)butan-2-yl (2-((3-hydroxy-3-methylbutyl)carbamoyl)pyridin-4-yl)carbamate] |
| 220 nM | Cc1cc(-c2nc3ncccc3s2)c2ncc(OC(F)F)nc2c1 [Example 9, 2-(2-(difluoromethoxy)-7-methylquinoxalin-5-yl)thiazolo[4,5-b]pyridine] |
| 36 nM | COC(=O)NCCOc1cccc2nc(-c3cc(C)cc4nc(OC(F)F)cnc34)sc12 [Example 69, Methyl 2-(2-(2-(difluoromethoxy)-7-methylquinoxalin-5-yl)benzo[d]thiazol-7-yloxy)ethylcarbamate] |
| 1100 nM | Cc1cc(-c2nc3c(C)cc(OCCNS(=O)(=O)c4ccc(F)cc4)cc3s2)c2ncc(C(C)F)nc2c1 (stereo not drawn) [Example 108, 4-fluoro N-(2-(2-(2-(1 fluoroethyl)-7-methylquinoxalin-5-yl)-4-methylbenzo[d]thiazol-6-yloxy)ethyl)benzenesulfonamide] |
| 2.1 nM | COc1cnc2c(-c3nc4cc(F)c(OC[C@@H](C)OC(=O)Nc5ccc(C(=O)NCC(C)(C)O)nc5)cc4s3)cc(C)cc2n1 [Example 448, (R)-1-((5-fluoro-2-(2-methoxy-7-methylquinoxalin-5-yl)benzo[d]thiazol-6-yl)oxy)propan-2-yl (6-((2-hydroxy-2-methylpropyl)carbamoyl)pyridin-3-yl)carbamate] |
| 1.6 nM | COc1cnc2c(-c3nc4cc(F)c(O[C@@H](C)[C@@H](C)OC(=O)Nc5ccc(OCC(F)(F)CO)nc5)cc4s3)cc(C)cc2n1 [Example 573, (2R,3S)-3-((5-fluoro-2-(2-methoxy-7-methylquinoxalin-5-yl)benzo[d]thiazol-6-yl)oxy)butan-2-yl (6-(2,2-difluoro-3-hydroxypropoxy)pyridin-3-yl)carbamate] |
